Reference: BindingDB's records for doi:10.1016/s0960-894x(01)00239-6 (Dupont Pharmaceuticals, 2001)

Biological target: T1, Gag-Pol polyprotein [588-1027]/[588-1147] (Human immunodeficiency virus 1, UniProt P04585)
T1 construct: 588-1027; 588-1147
Experiment: HIV-1 RT Assay
Conditions: pH 8.2; 37 °C
Description: The IC50 of reverse transcriptase is the concentration that inhibits 50% of recombinant HIV-1 RT RNA-directed DNA polymerase activity in vitro.

SMILES | IC50
C[C@@H]1O[C@](/C=C/C2CC2)(C(F)(F)F)c2cc(F)ccc2NC1=O [(3S,5S)-5-[(E)-2-cyclopropylethenyl]-7-fluoro-3-methyl-5-(trifluoromethyl)-1,2,3,5-tetrahydro-4,1-benzoxazepin-2-one] | 0.129 µM
C[C@@H]1O[C@](/C=C/C2CC2)(C(F)(F)F)c2c(ccc(F)c2F)NC1=O [(3S,5S)-5-[(E)-2-cyclopropylethenyl]-6,7-difluoro-3-methyl-5-(trifluoromethyl)-1,2,3,5-tetrahydro-4,1-benzoxazepin-2-one] | 0.173 µM
CC[C@@H]1O[C@](/C=C/C2CC2)(C(F)(F)F)c2cc(Cl)ccc2NC1=O [(3S,5S)-7-chloro-5-[(E)-2-cyclopropylethenyl]-3-ethyl-5-(trifluoromethyl)-1,2,3,5-tetrahydro-4,1-benzoxazepin-2-one] | 0.185 µM
C[C@@H]1O[C@](/C=C/C2CC2)(C(F)(F)F)c2cc(Cl)ccc2NC1=O [(3S,5S)-7-chloro-5-[(E)-2-cyclopropylethenyl]-3-methyl-5-(trifluoromethyl)-1,2,3,5-tetrahydro-4,1-benzoxazepin-2-one] | 0.046 µM
CC[C@@H]1O[C@](/C=C/C2CC2)(C(F)(F)F)c2cc(F)ccc2NC1=O [(3S,5S)-5-[(E)-2-cyclopropylethenyl]-3-ethyl-7-fluoro-5-(trifluoromethyl)-1,2,3,5-tetrahydro-4,1-benzoxazepin-2-one] | 0.151 µM
